Columns and labels:
[1] = tested on: IL-4R alpha protein; experiment: IL-4R alpha protein on lung cells by flow cytometry, rechallenge model; format: in vivo, mouse
Method: (§1) The rechallenge model of allergic inflammation includes a second series of nebulized OVA challenges on days 66 and 67 in addition to the sensitization and challenge steps of the acute model. This model allows for the evaluation of the target's role in a recall response, as opposed to its role as an initiator molecule. In the rechallenge model, mice were treated with 10, 100 or 500 μg/kg of either ISIS 231894 or the mismatch control oligonucleotide on days 52, 54, 56, 59 and 61, subsequent to the onset and resolution of the OVA-induced acute inflammatory response, delivered by nose only inhalation. The study endpoints were similar to those in the acute model, and included Penh response (i.e. AHR reduction), inflammatory cells and cytokines in BAL (determined by ELISA), mucus accumulation (as determined by periodic acid-Schiff base [PAS] staining in lungs), lung histology and IL-4R alpha protein reduction in lung epithelial and inflammatory cells (as determined by flow cytometry). The results are shown below in Tables 5 and 6.

[2] = tested on: OVA sensitized mice; experiment: Mouse model of allergic inflammation, rechallenge model (AHR/Penh, BAL eosinophils, cytokines); format: in vivo
Method: (§2) In the mouse model of allergic inflammation, mice are sensitized and challenged with aerosolized chicken ovalbumin (OVA). Airway responsiveness is assessed by inducing airflow obstruction using a noninvasive method whereby unrestrained conscious OVA sensitized mice are placed into the main chamber of a plethysmograph (Buxco Electronics, Inc. Troy, N.Y.) and challenged with aerosolized methacholine. Pressure difference between this chamber and a reference chamber is used to extrapolate minute volume, breathing frequency and enhanced pause (Penh). Penh is a dimensionless parameter that is a function of total pulmonary airflow (i.e. the sum of the airflow in the upper and lower respiratory tracts) during the respiratory cycle of a mouse and is […] when airflow is greater. This parameter closely correlates with lung resistance as measured by traditional, invasive techniques using ventilated animals (Hamelmann et al., 1997, Am. J. Respir. Crit. Care Med. 156:766-775).
as §1

[3] = tested on: OVA sensitized mice; experiment: Mouse model of allergic inflammation, chronic model (Penh, BAL cells, cytokines); format: in vivo; details: for % Eosinophils (BAL) / % Neutrophils (BAL): day 76
Method: as §2
In the chronic model of allergic inflammation, mice are subjected to repeated intranasal OVA administration, producing a chronic inflammatory response. In this model, mice were sensitized by intraperitoneal injection with 100 μg of OVA on days 0 and 14 as in the previous models. OVA was administered at a dose of 500 μg on days 14, 27, 28, 29, 47, 61, 73, 74 and 75. Oligonucleotide, either ISIS 231894 or the mismatch control, was administered via the nose-only aerosol delivery exposure system at a dose of either 5 μg/kg or 500 μg/kg on days 31, 38, 45, 52, 59, 66 and 73. Dexamethasone, an anti-inflammatory agent, was administered by intraperitoneal injection at 2.5 mg/kg on days 47, 62, 73, 74 and 75. Analysis of endpoints was performed on day 76, except cytokines which were evaluated on day 62, 6 hours post OVA challenge. Endpoints were similar to those in the acute and rechallenge model, and included Penh (AHR), BAL inflammatory cell accumulation and cytokines and mucus accumulation.

[4] = Lung concentration, lung half life and tolerability of inhaled oligonucleotide in mice
[5] = tested on: OVA sensitized mice; experiment: Allergic rhinitis mouse model, intranasal administration; format: in vivo
Method: In a mouse model of allergic rhinitis, animals were sensitized intraperitoneally with alum-precipitated OVA on days 1, 5, 10 and 15. OVA diluted with saline was administered intranasally (25 μL of 500 μg OVA in each nare) daily, on days 18-22, 25-29, and 32-35. ISIS 231894 and budesonide were administered intranasally, with budesonide administration one hour before each intranasal OVA challenge. ISIS 231894 was administered on days 11, 13, 15, and one hour before each intranasal OVA challenge. Endpoints were evaluated on day 36 and included nasal mucus accumulation (nasal histopathology) nasal eosinophilia, neutrophilia (by nasal lavage analysis and microscopic eosinophil counts in epithelial tissue) and allergic symptoms (numbers of sneezes and nose-rubs observed over a fixed time period).

[6] = tested on: OVA sensitized mice; experiment: Acute allergic inflammation mouse model with inhaled budesonide and/or ISIS 231894; format: in vivo; details: 1 μg/kg ISIS 231894 alone (Table 9)
Method: In the mouse model of allergic inflammation, mice are sensitized and challenged with aerosolized chicken ovalbumin (OVA). Airway responsiveness is assessed by inducing airflow obstruction using a noninvasive method whereby unrestrained conscious OVA sensitized mice are placed into the main chamber of a plethysmograph (Buxco Electronics, Inc. Troy, N.Y.) and challenged with aerosolized methacholine. Pressure difference between this chamber and a reference chamber is used to extrapolate minute volume, breathing frequency and enhanced pause (Penh). Penh is a dimensionless parameter that is a function of total pulmonary airflow (i.e. the sum of the airflow in the upper and lower respiratory tracts) during the respiratory cycle of a mouse and is lower when airflow is greater.
For the acute model of allergic inflammation, mice were sensitized with 20 μg of alum-precipitated OVA was injected intraperitoneally on days 0 and 14. On days 24, 25 and 26, animals were exposed for 20 minutes to 1% OVA (in saline) by ultrasonic nebulization. On days 17, 19, 21, 24 and 26 animals were dosed with vehicle alone (saline), 1 μg/kg or 10 μg/kg of ISIS 231894 or the mismatch control oligonucleotide. Oligonucleotides or vehicle were suspended in 0.9% sodium chloride and delivered via inhalation using a nose-only aerosol delivery exposure system. A Lovelace nebulizer set at a flow rate of 1.4 liter per minute feeding into a total flow rate of 10 liters per minute was used to deliver the oligonucleotide. The exposure chamber was equilibrated with an oligonucleotide aerosol solution for 5 minutes before mice were placed in a restraint tube attached to the chamber. Restrained mice were treated for a total of 10 minutes. Analysis was performed on day 28.
The acute mouse model of allergic inflammation was used to determine if co-administration of inhaled IL-4R alpha antisense oligonucleotide would enhance the activity of inhaled budesonide, or reduce the dose required to produce anti-inflammatory activity. As described in Example 6, mice were sensitized with alum-precipitated OVA at day 0 and day 14 and nebulized with OVA in saline on days 24, 25 and 26. All mice were analyzed on day 28. Budesonide (0.3, 3, 30, and 300 μg/kg dissolved in PBS Containing 20% DMSO) was administered by nose-only aerosol exposure beginning on day 23 (24 and 20 hours before OVA exposure) and then daily through day 26, one hour prior to daily OVA exposure. The 30 μg/kg dose was also administered twice a day (bid) from day 23-26 as a separate group. As in Example 6, ISIS 231894 was administered by nose-only aerosol exposure at day 17, 19, 21, 23 and 26.
The effect of budesonide and/or ISIS 231894 treatment on AHR, BAL eosinophil infiltration and mucus accumulation (number of PAS-positive airways) were determined.

[7] = Table 11, 0.01 mg/kg intranasal

ISIS 231894: lead antisense oligonucleotide targeted to mouse IL-4R alpha; CCGCTGTTCTCAGGTGACAT; SEQ ID NO: 24; 2'-MOE gapmer, phosphorothioate (all phosphorothioate, sugars by position and methylation of C not given here; 2'-MOE gapmer)
target protein (IL-4R alpha), Dendritic cells ([1]; 10 μg/kg inhaled): 25 % positive cells
target protein (IL-4R alpha), Macrophages/Eosinophils ([1]; 10 μg/kg inhaled): 18 % positive cells
target protein (IL-4R alpha), Dendritic cells ([1]; 100 μg/kg inhaled): 18 % positive cells
target protein (IL-4R alpha), Macrophages/Eosinophils ([1]; 100 μg/kg inhaled): 20 % positive cells
target protein (IL-4R alpha), Dendritic cells ([1]; 500 μg/kg inhaled): 10 % positive cells
target protein (IL-4R alpha), Macrophages/Eosinophils ([1]; 500 μg/kg inhaled): 17 % positive cells
IL-4R alpha surface expression on lung eosinophils, macrophages and dendritic cells, in words ([1]; flow cytometry): reduced the amount of IL-4R alpha surface expression
percentage of eosinophils in BAL fluid vs mismatch control, in words [2]: significantly reduced
lung IL-5 mRNA, in words ([2]; 10 μg and 100 μg doses): inhibited
% Eosinophils (BAL) ([2]; 10 μg/kg inhaled): 22%
Penh (100 mg/mL methacholine) ([2]; 10 μg/kg inhaled): 3
% Eosinophils (BAL) ([2]; 100 μg/kg inhaled): 18%
Penh (100 mg/mL methacholine) ([2]; 100 μg/kg inhaled): 3.5
% Eosinophils (BAL) ([2]; 500 μg/kg inhaled): 15%
Penh (100 mg/mL methacholine) ([2]; 500 μg/kg inhaled): 3.5
methacholine-induced AHR (Penh) vs vehicle control, in words ([2]; all three doses (10, 100, 500 μg/kg)): significant reduction
cytokines KC, MCP-1, IL-5 and IL-13 in BAL fluid vs vehicle control, in words ([2]; doses of 100 μg and 500 μg, ELISA): significantly reduced expression
% Eosinophils (BAL) ([3]; 5 μg/kg inhaled): 45%
% Neutrophils (BAL) ([3]; 5 μg/kg inhaled): 38%
% Eosinophils (BAL) ([3]; 500 μg/kg inhaled): 29%
% Neutrophils (BAL) ([3]; 500 μg/kg inhaled): 35%
percent of eosinophils in BAL fluid vs vehicle control, in words ([3]; ISIS 231894 500 μg/kg, dexamethasone 2.5 mg/kg ip): significant decrease
methacholine-induced AHR (Penh) vs vehicle, in words ([3]; ISIS 231894 each dose (5, 500 μg/kg), dexamethasone 2.5 mg/kg ip): significant decrease
percent neutrophils in BAL, in words ([3]; both doses of ISIS 231894, dexamethasone 2.5 mg/kg ip): significantly reduced
IL-5 and KC in BAL fluid vs vehicle, in words ([3]; day 62, ISIS 231894 500 μg/kg, dexamethasone 2.5 mg/kg ip): significant reduction
effect of once weekly dosing on AHR and airway inflammation, in words ([4]; mice with well established allergen-induced pulmonary inflammation): reduced AHR and airway inflammation
tolerability of intrapulmonary aerosol doses ([4]; mice, doses up to 1 mg/kg): well-tolerated
% Nasal lavage eosinophils [5, 7]: 12%
% Nasal lavage neutrophils [5, 7]: 16%
Nasal rubs [5, 7]: 0.8 per 5 min
Sneezes [5, 7]: 2.5 per 5 min
Tissue eosinophils [5, 7]: 438 per mm^2
% Nasal lavage eosinophils ([5]; Table 11, 0.1 mg/kg intranasal): 2%
% Nasal lavage neutrophils ([5]; Table 11, 0.1 mg/kg intranasal): 5%
Nasal rubs ([5]; Table 11, 0.1 mg/kg intranasal): 0.3 per 5 min
Sneezes ([5]; Table 11, 0.1 mg/kg intranasal): 1.9 per 5 min
Tissue eosinophils ([5]; Table 11, 0.1 mg/kg intranasal): 240 per mm^2
% Nasal lavage eosinophils ([5]; Table 11, 1 mg/kg intranasal): 5%
% Nasal lavage neutrophils ([5]; Table 11, 1 mg/kg intranasal): 13%
Nasal rubs ([5]; Table 11, 1 mg/kg intranasal): 0.5 per 5 min
Sneezes ([5]; Table 11, 1 mg/kg intranasal): 1.0 per 5 min
Tissue eosinophils ([5]; Table 11, 1 mg/kg intranasal): 101 per mm^2
% Nasal lavage eosinophils ([5]; Table 11, 10 mg/kg intranasal): 9%
% Nasal lavage neutrophils ([5]; Table 11, 10 mg/kg intranasal): 14%
Nasal rubs ([5]; Table 11, 10 mg/kg intranasal): 1.1 per 5 min
Sneezes ([5]; Table 11, 10 mg/kg intranasal): 4.8 per 5 min
Tissue eosinophils ([5]; Table 11, 10 mg/kg intranasal): 298 per mm^2
nasal eosinophilia, neutrophilia and allergic symptoms (sneezes and nose rubs), in words ([5]; allergic rhinitis model, intranasal, alone and in combination): reduce nasal eosinophilia, neutrophilia and allergic symptoms
% Eosinophils (BAL) [6]: 27%
PAS+ airways (mucus accumulation) [6]: 21
Penh (100 mg/mL methacholine) [6]: 6.2

— patent US20100056606A1, “Combination therapy using budesonide and antisense oligonucleotide targeted to IL4-receptor alpha” (ISIS Pharmaceuticals, Inc., priority 2005, published 2010)
